Target: human chemokine receptor CXCR7 (Homo sapiens (Human), UniProt P25106)
Assay: Tango CXCR7-bla U2OS beta-arrestin recruitment assay (beta-lactamase reporter, FRET), antagonism of CXCL12/SDF1-α;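 note: compounds preincubated 15 min before CXCL12 addition, then 22 h at 37 °C, FRET emission ratio read with CCF4-AM substrate after 2 h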
Type: cell-based
Conditions: antagonistic effect on CXCR7; Tango CXCR7-bla U2OS cells, CXCL12/SDF1-α at its EC80

Chain of human chemokine receptor CXCR7 (P25106 whole entry): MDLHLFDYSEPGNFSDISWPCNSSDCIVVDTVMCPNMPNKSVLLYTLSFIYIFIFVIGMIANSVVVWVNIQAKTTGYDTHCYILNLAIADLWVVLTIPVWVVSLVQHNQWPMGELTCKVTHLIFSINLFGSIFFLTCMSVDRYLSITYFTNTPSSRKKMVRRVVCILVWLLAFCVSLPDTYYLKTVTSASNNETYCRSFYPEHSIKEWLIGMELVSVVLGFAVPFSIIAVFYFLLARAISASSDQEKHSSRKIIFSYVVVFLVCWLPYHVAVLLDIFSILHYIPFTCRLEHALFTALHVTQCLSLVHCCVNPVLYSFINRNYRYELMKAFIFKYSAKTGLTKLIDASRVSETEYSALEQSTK

IC50 [nM]	Compound
186	O=C(N[C@@H]1CCN(CC2CC2)C[C@H]1C(=O)NC1(c2ncccn2)CC1)c1cc(-c2c(F)cccc2F)on1 (racemic) [Example 1.191, rac-(3R*,4R*)-1-Cyclopropylmethyl-4-{[5-(2,6-difluoro-phenyl)-isoxazole-3-carbonyl]-amino}-piperidine-3-carboxylic acid (1-pyrimidin-2-yl-cyclopropyl)-amide]
389	O=C(N[C@@H]1CCN(CC2CC2)C[C@H]1C(=O)NC1(c2ncccn2)CC1)c1cc(-c2ccc(C(F)(F)F)cc2)on1 (racemic) [Example 1.192, rac-(3R*,4R*)-1-Cyclopropylmethyl-4-{[5-(4-trifluoromethyl-phenyl)-isoxazole-3-carbonyl]-amino}-piperidine-3-carboxylic acid (1-pyrimidin-2-yl-cyclopropyl)-amide]
759	COc1ccc(-c2cc(C(=O)N[C@@H]3CCN(CC4CC4)C[C@H]3C(=O)NC3(c4ncccn4)CC3)no2)c(F)c1 (racemic) [Example 1.195, rac-(3R*,4R*)-1-Cyclopropylmethyl-4-{[5-(2-fluoro-4-methoxy-phenyl)-isoxazole-3-carbonyl]-amino}-piperidine-3-carboxylic acid (1-pyrimidin-2-yl-cyclopropyl)-amide]
575	O=C(N[C@@H]1CCN(CC2CC2)C[C@H]1C(=O)NC1(c2ncccn2)CC1)c1cc(-c2ccc(F)cn2)on1 (racemic) [Example 1.196, rac-(3R*,4R*)-1-Cyclopropylmethyl-4-{[5-(5-fluoro-pyridin-2-yl)-isoxazole-3-carbonyl]-amino}-piperidine-3-carboxylic acid (1-pyrimidin-2-yl-cyclopropyl)-amide]
11	O=C(N[C@@H]1CCN(CC2CC2)C[C@H]1C(=O)NC1(c2ccccn2)CCC1)c1cc(-c2ccc(F)cc2F)on1 (racemic) [Example 1.197, rac-(3R*,4R*)-1-Cyclopropylmethyl-4-{[5-(2,4-difluoro-phenyl)-isoxazole-3-carbonyl]-amino}-piperidine-3-carboxylic acid (1-pyridin-2-yl-cyclobutyl)-amide]
52	COc1ccccc1C1(NC(=O)[C@@H]2CN(CC3CC3)CC[C@H]2NC(=O)c2cc(-c3ccc(F)cc3F)on2)CC1 (racemic) [Example 1.198, rac-(3R*,4R*)-1-Cyclopropylmethyl-4-{[5-(2,4-difluoro-phenyl)-isoxazole-3-carbonyl]-amino}-piperidine-3-carboxylic acid [1-(2-methoxy-phenyl)-cyclopropyl]-amide]
273	O=C(N[C@@H]1CCN(CC2CC2)C[C@H]1C(=O)NC1(c2ncccn2)CC1)c1cc(-c2cccc(F)c2F)on1 (racemic) [Example 1.199, rac-(3R*,4R*)-1-Cyclopropylmethyl-4-{[5-(2,3-difluoro-phenyl)-isoxazole-3-carbonyl]-amino}-piperidine-3-carboxylic acid (1-pyrimidin-2-yl-cyclopropyl)-amide]
209	CC(C)N1CC[C@@H](NC(=O)c2cc(-c3ccc(F)cc3F)on2)[C@H](C(=O)N(C)C)C1 (racemic) [Example 2.001, rac-(3R*,4R*)-4-{[5-(2,4-Difluoro-phenyl)-isoxazole-3-carbonyl]-amino}-1-isopropyl-piperidine-3-carboxylic Acid Dimethylamide]
965	CN(C)C(=O)[C@@H]1CN(C2CCCCC2)CC[C@H]1NC(=O)c1cc(-c2c(F)cccc2F)on1 (racemic) [Example 3.001, rac-(3R*,4R*)-1-Cyclohexyl-4-{[5-(2,6-difluoro-phenyl)-isoxazole-3-carbonyl]-amino}-piperidine-3-carboxylic acid dimethylamide]
435	CN(C)C(=O)[C@@H]1CN(C2CCCCC2)CC[C@H]1NC(=O)c1cc(-c2ccc(F)cc2)on1 (racemic) [Example 3.002, rac-(3R*,4R*)-1-Cyclohexyl-4-{[5-(4-fluoro-phenyl)-isoxazole-3-carbonyl]-amino}-piperidine-3-carboxylic acid dimethylamide]
105	CN(C)C(=O)[C@@H]1CN(C2CCCCC2)CC[C@H]1NC(=O)c1nnc(-c2ccc(F)cc2F)o1 (racemic) [Example 3.003, rac-(3R*,4R*)-1-Cyclohexyl-4-{[5-(2,4-difluoro-phenyl)-[1,3,4]oxadiazole-2-carbonyl]-amino}-piperidine-3-carboxylic acid dimethylamide]
338	CN(C)C(=O)[C@@H]1CN(C2CCCCC2)CC[C@H]1NC(=O)c1cc(-c2ccc(F)cc2Cl)on1 (racemic) [Example 3.004, rac-(3R*,4R*)-4-{[5-(2-Chloro-4-fluoro-phenyl)-isoxazole-3-carbonyl]-amino}-1-cyclohexyl-piperidine-3-carboxylic acid dimethylamide]
38	CN(C)C(=O)[C@@H]1CN(C2CCCCC2)CC[C@H]1NC(=O)c1cc(-c2c(F)cc(F)cc2F)on1 (racemic) [Example 3.005, rac-(3R*,4R*)-1-Cyclohexyl-4-{[5-(2,4,6-trifluoro-phenyl)-isoxazole-3-carbonyl]-amino}-piperidine-3-carboxylic acid dimethylamide]
108	CN(C)C(=O)[C@@H]1CN(C2CCCCC2)CC[C@H]1NC(=O)c1cc(-c2ccc(Cl)cc2F)on1 (racemic) [Example 3.006, rac-(3R*,4R*)-4-{[5-(4-Chloro-2-fluoro-phenyl)-isoxazole-3-carbonyl]-amino}-1-cyclohexyl-piperidine-3-carboxylic acid dimethylamide]
286	O=C(N[C@@H]1CCN(C2CCCCC2)C[C@H]1C(=O)NC1(c2ccccn2)CC1)c1cc(-c2ccccc2F)on1 (racemic) [Example 3.009, rac-(3R*,4R*)-1-Cyclohexyl-4-{[5-(2-fluoro-phenyl)-isoxazole-3-carbonyl]amino}-piperidine-3-carboxylic acid (1-pyridin-2-yl-cyclopropyl)-amide]
26	O=C(N[C@@H]1CCN(C2CCCCC2)C[C@H]1C(=O)NC1(c2ccccn2)CC1)c1nnc(-c2ccc(F)cc2F)o1 (racemic) [Example 3.012, rac-(3R*,4R*)-1-Cyclohexyl-4-{[5-(2,4-difluoro-phenyl)-[1,3,4]oxadiazole-2-carbonyl]-amino}-piperidine-3-carboxylic acid (1-pyridin-2-yl-cyclopropyl)-amide]
153	O=C(N[C@@H]1CCN(CC2CC2)C[C@H]1C(=O)NC1(c2ccccn2)CC1)c1cc(-c2ccccc2F)on1 (racemic) [Example 3.013, rac-(3R*,4R*)-1-Cyclopropylmethyl-4-{[5-(2-fluoro-phenyl)-isoxazole-3-carbonyl]-amino}-piperidine-3-carboxylic acid (1-pyridin-2-yl-cyclopropyl)-amide]
158	O=C(N[C@@H]1CCN(CC2CC2)C[C@H]1C(=O)NC1(c2ccccn2)CC1)c1cc(-c2ccc(F)cc2)on1 (racemic) [Example 3.014, rac-(3R*,4R*)-1-Cyclopropylmethyl-4-{[5-(4-fluoro-phenyl)-isoxazole-3-carbonyl]-amino}-piperidine-3-carboxylic acid (1-pyridin-2-yl-cyclopropyl)-amide]
170	O=C(N[C@@H]1CCN(CC2CC2)C[C@H]1C(=O)NC1(c2ccccn2)CC1)c1ncc(-c2ccc(F)cc2F)o1 (racemic) [Example 3.015, rac-(3R*,4R*)-1-Cyclopropylmethyl-4-{[5-(2,4-difluoro-phenyl)-oxazole-2-carbonyl]-amino}-piperidine-3-carboxylic acid (1-pyridin-2-yl-cyclopropyl)-amide]
105	O=C(N[C@@H]1CCN(CC2CC2)C[C@H]1C(=O)NC1(c2ccccn2)CC1)c1nnc(-c2ccc(F)cc2F)o1 (racemic) [Example 3.016, rac-(3R*,4R*)-1-Cyclopropylmethyl-4-{[5-(2,4-difluoro-phenyl)-[1,3,4]oxadiazole-2-carbonyl]-amino}-piperidine-3-carboxylic acid (1-pyridin-2-yl-cyclopropyl)-amide]
661	CN(C)C(=O)[C@@H]1CN(C2CCCC2)CC[C@H]1NC(=O)c1ncc(-c2ccc(F)cc2F)o1 (racemic) [Example 3.017, rac-(3R*,4R*)-1-Cyclopentyl-4-{[5-(2,4-difluoro-phenyl)-oxazole-2-carbonyl]-amino}-piperidine-3-carboxylic acid dimethylamide]
198	CN(C)C(=O)[C@@H]1CN(C2CCCCC2)CC[C@H]1NC(=O)c1ncc(-c2ccc(F)cc2F)o1 (racemic) [Example 3.018, rac-(3R*,4R*)-1-Cyclohexyl-4-{[5-(2,4-difluoro-phenyl)-oxazole-2-carbonyl]-amino}-piperidine-3-carboxylic acid dimethylamide]
778	CN(C)C(=O)[C@@H]1CN(C2CCCCC2)CC[C@H]1NC(=O)c1nc(-c2ccc(F)cc2F)no1 (racemic) [Example 3.019, rac-(3R*,4R*)-1-Cyclohexyl-4-{[3-(2,4-difluoro-phenyl)-[1,2,4]oxadiazole-5-carbonyl]-amino}-piperidine-3-carboxylic acid dimethylamide]
40	O=C(N[C@@H]1CCN(CC2CC2)C[C@H]1C(=O)NC1(c2ncccn2)CC1)c1noc(-c2ccc(F)cc2)c1F (racemic) [Example 3.021, rac-(3R*,4R*)-1-Cyclopropylmethyl-4-{[4-fluoro-5-(4-fluoro-phenyl)-isoxazole-3-carbonyl]-amino}-piperidine-3-carboxylic acid (1-pyrimidin-2-yl-cyclopropyl)-amide]

Compound	IC50 [nM]
O=C(N[C@@H]1CCN(CC2CC2)C[C@H]1C(=O)NC1(c2ncccn2)CC1)c1cc(-c2cccc(C(F)(F)F)c2)on1 (racemic) [Example 1.193, rac-(3R*,4R*)-1-Cyclopropylmethyl-4-{[5-(3-trifluoromethyl-phenyl)-isoxazole-3-carbonyl]-amino}-piperidine-3-carboxylic acid (1-pyrimidin-2-yl-cyclopropyl)-amide]	191
CN(C)C(=O)[C@@H]1CN(C2CCCCC2)CC[C@H]1NC(=O)c1noc(-c2ccc(F)cc2F)n1 (racemic) [Example 3.007, rac-(3R*,4R*)-1-Cyclohexyl-4-{[5-(2-difluoro-phenyl)-[1,2,4]oxadiazole-3-carbonyl]-amino}-piperidine-3-carboxylic acid dimethylamide]	162

From US11306078B2, “Piperidine CXCR7 receptor modulators” (IDORSIA PHARMACEUTICALS LTD., priority 2016, dated 2022)
